Entries after “also recorded” stand apart in the source; their conditions may differ.
Columns and labels:
β-catenin = assay: Cytosolic β-catenin stabilization assay; format: cell-based, mouse; settings: mESCs
Experimental: Cytosolic β-Catenin Stabilization Assay. ES cells were treated with Wnt3A-conditioned medium or Gö6983 or LIF for 10 hours, and lysed hypotonically on ice with 1× TE (pH 7.4) with protease inhibitors. Lysates were centrifuged at 100,000 g at 4° C. for 45 minutes to collect and analyze cytosolic fractions.

[1] = system: canonical Wnt reporter (TOPFLASH reporter); assay: TOPFLASH luciferase reporter assay; format: cell-based, mouse; settings: mESCs
Experimental: TOPFLASH Luciferase Reporter Assay. […] were transfected with 0.5 μg of SUPER8XTOPFlash and 20 ng of phRL Renilla luciferase vectors per well using LIPOFECTAMINE (Invitrogen). Transfected cells were cultured with or without LIF, or Wnt3a-conditioned medium, or with Gö6983, and luciferase activity was measured after 48 hours of transfection using Dual-Luciferase Reporter Assay System (Promega).

endothelial cells = settings: Dutta, et al. (2008); cited from earlier work
ES cells = assay: Quantitative Clonal Assay (survival at clonal density); format: cell-based, mouse; settings: ≦10 μM
Experimental: Quantitative Clonal Assay. ES and iPS cells were dissociated into single cells using 0.05% trypsin/EDTA and 2-20 cells were plated on each well of a 96-well culture plate. The cells were cultured for 6-7 days, colonies were stained for Nanog, and the number of Nanog positive colonies was counted. […] This procedure was repeated for five consecutive passages (>30 days).

E14 ES cells = assay: ES cell culture in the absence of LIF (undifferentiated state, marker expression); format: cell-based, mouse
Experimental: E14 ES Cell Cultures. Cells were grown in ES-IMDM media (Lonza, Walkersville, Md.) in a feeder-free condition. ES-IMDM was supplemented with 15% serum, 10^5 U/100 ml of LIF (ESGRO, Millipore, Calif.) and 0.0124% monothioglycerol (MTG; Sigma Aldrich). Cells were grown for 3-5 days with change of medium every day. For inducing differentiation in monolayer culture and to determine the effect of Gö6983 in preventing differentiation, E14 cells were cultured on gelatin-coated plastics for 8 days without LIF. Details of experiments performed at clonal-density are described herein. To maintain E14 cells with Gö6983, serum supplemented ES-IMDM was used in the presence of 5 μM Gö6983 and was passed after every 3-5 days. For all assays involving elucidation of different signaling mechanism responsible for maintenance of pluripotency, cells from a ˜70% confluent ES culture plate were washed two times with 1× phosphate-buffered saline (PBS), trypsinized and plated on a 6-well tissue culture plate and treated with or without LIF or Gö6983 or different inhibitors for ˜10 hours followed by preparation of protein lysates and RNA. The PKCζ knocked-down E14 cells that were generated in this study were maintained in serum supplemented ES-IMDM on gelatin-coated plates in the absence of Gö6983 or LIF or any other inhibitor and passed after 3-5 days. For the experiments herein, cells were continuously cultured at least for 5 consecutive passages (>18 days) on gelatin-coated plates without significant differentiation.
Quantitative RT-PCR Analysis. RNA was extracted from different cell samples with TRIZOL reagent (Invitrogen). cDNA was prepared by annealing RNA (1 μg) with 250 ng of a 5:1 mixture of random and oligo(dT) primers heated at 68° C. for 10 minutes. This was followed by incubation with Moloney murine leukemia virus reverse transcriptase (50 units) (Invitrogen, Carlsbad, Calif.) combined with 10 mM DTT, RNasin (PROMEGA, Madison, Wis.), and 0.5 mM dNTPs at 42° C. for 1 hour. Reactions were diluted to a final volume of 100 μl and heat inactivated at 97° C. for 5 minutes. Twenty μl PCR reactions contained 2 μl cDNA, 10 μl SYBR Green Master Mix (Applied Biosystems, Foster City, Calif.) and corresponding primer sets. Relative expression levels were determined from a standard curve of serial dilutions of proliferating ES cell cDNA samples and were normalized to the expression of glyceraldehyde-3-phosphate dehydrogenase (GAPDH). At least three independent experiments were done for each set of data.
Immunostaining. Immunostaining of Oct4, and Nanog expression was performed using standard protocols. Briefly, ES cells were fixed in 4% paraformaldehyde/4% sucrose, permeabilized with 0.1% TRITON X 100 (Sigma). Cells were blocked by adding 1% fish gelatin (Sigma, St. Louis, Mo.) and incubated overnight at 4° C. with 200 μl of primary antibodies. Fluorescent-conjugated secondary antibodies (ALEXA FLUOR 488, and ALEXA FLUOR 568, Molecular Probes, Invitrogen) were used at 1:250 dilutions to visualize cells. Images were captured using a LEICA fluorescence microscope.

Ezh2−/− ES cells = Ezh2−/− ES cells on collagen-IV without LIF; format: cell-based, mouse; settings: absence of LIF
Experimental: Ezh2^−/− ES Cells. Ezh2^−/− cells, passage 6, were maintained on irradiated MEF feeders in standard ES medium (DMEM; Dulbecco's modified Eagle's medium) supplemented with 15% heat-inactivated fetal calf serum, 0.1 mM 2-mercaptoethanol, 2 mM L-glutamine, 0.1 mM non-essential amino acid, 1% of nucleoside mix (100× stock, Sigma), 1000 U/mi LIF and 50 U/ml Penicillin/Streptomycin. For experiments involving Gö6983, Ezh2^−/− cells were passed once without feeders and used for subsequent analysis. For experiments on collagen IV, ˜3×10^4 Ezh2^−/− cells were plated in each well of a six-well tissue culture plate in the presence or absence of LIF and Gö6983.

PKC μ = PKC μ (Homo sapiens, UniProt Q15139); settings: higher concentrations; cited from earlier work
Sequence of PKC μ (Q15139 whole entry): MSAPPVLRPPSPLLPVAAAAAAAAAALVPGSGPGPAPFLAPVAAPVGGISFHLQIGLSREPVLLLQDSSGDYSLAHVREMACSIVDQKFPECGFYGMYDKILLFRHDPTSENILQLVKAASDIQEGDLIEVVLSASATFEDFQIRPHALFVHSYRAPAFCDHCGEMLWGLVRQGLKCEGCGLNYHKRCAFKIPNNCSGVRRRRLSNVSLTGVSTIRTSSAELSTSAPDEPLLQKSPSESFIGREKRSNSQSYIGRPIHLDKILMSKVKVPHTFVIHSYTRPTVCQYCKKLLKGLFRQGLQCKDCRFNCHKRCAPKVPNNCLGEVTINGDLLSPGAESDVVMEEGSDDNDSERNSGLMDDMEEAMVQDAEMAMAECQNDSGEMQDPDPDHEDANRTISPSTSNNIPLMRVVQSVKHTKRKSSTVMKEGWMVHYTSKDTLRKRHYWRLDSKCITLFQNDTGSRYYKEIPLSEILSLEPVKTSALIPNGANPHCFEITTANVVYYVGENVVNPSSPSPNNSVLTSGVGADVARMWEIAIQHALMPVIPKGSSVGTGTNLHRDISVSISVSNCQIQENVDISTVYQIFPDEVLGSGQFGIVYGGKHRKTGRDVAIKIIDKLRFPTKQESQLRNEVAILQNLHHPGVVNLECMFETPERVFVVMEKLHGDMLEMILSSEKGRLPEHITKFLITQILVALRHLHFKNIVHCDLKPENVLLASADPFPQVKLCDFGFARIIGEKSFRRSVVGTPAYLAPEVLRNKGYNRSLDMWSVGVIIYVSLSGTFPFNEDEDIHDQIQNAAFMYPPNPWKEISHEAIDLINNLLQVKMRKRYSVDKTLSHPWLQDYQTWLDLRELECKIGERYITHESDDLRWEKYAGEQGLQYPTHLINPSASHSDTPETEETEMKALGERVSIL

C57BL/6 blastocysts = assay: Chimera generation and germ-line transmission by blastocyst injection; format: in vivo, mouse
Experimental: Chimera Generation and Germ-Line Transmission. Prepubertal (3 weeks of age) donor C57BL/6 female mice (Jackson Laboratory, Bar Harbor, Me.) were superovulated, mated overnight to intact C57BL/6 stud males and euthanized by cervical dislocation on day 3.5. Uteri were collected after euthanasia and flushed with M2 medium (Millipore, Bilerica, Mass.) for the collection of blastocysts. Eight to ten ES or iPS cells were injected into the blastocoel of each blastocyst. After injection, the blastocysts were surgically transferred into recipient females that were pseudopregnant by mating with vasectomized males. Recipient females carried the pups to term and nursed until weaning at three weeks. High-level chimeras, generated from newly derived ES cells, were mated with C57BL/6 adult mice to test for germline transmission.

## COc1ccc2c(c1)c(C1=C(c3c[nH]c4ccccc34)C(=O)NC1=O)cn2CCCN(C)C [Gö6983, 3-[1-[3-(dimethylamino)propyl]5-methoxy-1H-indol-3-yl]-4-(1H-indol-3-yl)-1H-pyrrole-2,5-dione]
β-catenin
  β-catenin stabilization: did not stabilize
[1]
  TOPFLASH reporter activity: did not induce
Endothelial cells
  angiogenic signal-induced VEGFR1 expression in endothelial cells: inhibits angiogenic signal-induced VEGFR1 expression
ES cells
  loss in ES cell survival at clonal density: no significant loss
E14 ES cells; 2.5 μM, without LIF
  ES cell differentiation at 2.5 μM: almost completely inhibited
E14 ES cells; concentration profile analysis, absence of LIF
  concentration that efficiently maintained undifferentiated ES cell colony / inhibits mouse ES cell differentiation: ≥ 2.5 µM
E14 ES cells; mouse ES cells, without LIF
  ES cell differentiation in the absence of LIF: did not differentiate and maintained their undifferentiated colony morphology
E14 ES cells; quantitative RT-PCR, FIG. 1B
  induction of developmental genes required for lineage commitment: did not occur
E14 ES cells; quantitative RT-PCR, without LIF, FIG. 1A
  expression of pluripotency markers Oct4, Nanog, Sox2 and Rex-1: maintained the expression of pluripotency markers
E14 ES cells; serum from different sources
  ES cell pluripotency in media with different batches of fetal bovine serum: maintained ES cell pluripotency in all culture media irrespective of serum source
Ezh2−/− ES cells
  collagen-IV-induced Ezh2−/− cell differentiation: completely inhibited
  marker expression in Ezh2−/− cells on collagen-IV: maintained expression of pluripotency markers without the induction of developmental regulator genes
PKC μ
  concentration that inhibits isoform PKC μ: > 20 µM
C57BL/6 blastocysts; 7 passages with Gö6983, injected into C57Bl/6 blastocysts
  chimera generation from E14 ES cells maintained with Gö6983: yielded multiple chimeric mice; also recorded: efficiently generated chimeras
C57BL/6 blastocysts; E14 cells, 59 blastocysts injected, 7 pups
  Chimera #: 5
C57BL/6 blastocysts; ES 1 (line derived with Gö6983)
  # of Chimera showing Germline Transmission: 3
C57BL/6 blastocysts; ES 1 (line derived with Gö6983), 45 blastocysts injected, 15 pups
  Chimera #: 5
C57BL/6 blastocysts; ES 2 (line derived with Gö6983)
  # of Chimera showing Germline Transmission: 2
C57BL/6 blastocysts; ES 2 (line derived with Gö6983), 38 blastocysts injected, 6 pups
  Chimera #: 2
C57BL/6 blastocysts; iPSC 1, 18 blastocysts injected, 5 pups
  Chimera #: 3
C57BL/6 blastocysts; iPSC 2, 30 blastocysts injected, 6 pups
  Chimera #: 3
C57BL/6 blastocysts; injected into blastocysts
  chimera generation from Gö6983-derived iPS cells: generate chimeric mice
C57BL/6 blastocysts; two lines after six passages, chimeras crossed with C57BL/6 adults
  chimera and germline contribution of Gö6983-derived ES cells: successfully generated adult chimera, which produced germline offsprings
